# System: pERK in HCT-116 cells (KRAS G13D)
# Test: Phospho-ERK inhibition (AlphaLISA SureFire Ultra p-ERK 1/2), HCT116
# Format: cell-based, human
# Conditions: HCT116 cells; class symbol
# Procedure: All cancer cell lines (A375, A101D, A2058, RKO, HT29 SK-MEL 30, IPC298, HepG2, HCT-116, Lovo, SWV620, SW480, NCI-H358, NCI-H2122, Calu-6, NCIH2087, NCIH1755, NCIH1666 and Mewo) were obtained from ATCC and cultured in RPMI-1640 medium (Gibco) supplemented with 5% heat inactivated fetal bovine serum (FBS, Wisent) at 37° C. under 5% CO2. Cells were maintained in T175 flasks (Greiner). They were passaged by removing the culture medium, washing once in 10 mL of room temperature Phosphate Buffered Saline (PBS; Wisent) and incubating at 37° C. with 2 mL of 0.05% Trypsin (Thermo-Fisher). Trypsin was then inactivated by adding complete growth medium and the cells were then replated in a T175 culture dish at the appropriate dilution. All cell lines were routinely tested for mycoplasma contamination. Tissue type and mutational status of each cell line can be found in Table B.
# AlphaLISA® SureFire® Ultra™ p-ERK 1/2 (Thr202/Tyr204) analysis was conducted on cells plated in 100 μL of complete RPMI-1640 growth medium in 96-well flat-bottomed transparent dishes (Costar) at a density indicated in Table C. Cells were maintained overnight at 37° C. under 5% CO2 before treatment with compounds' dilution series for one hour. The cell density in cells/cm^2 corresponds to cell number divided by the area of one well of a 96-well plate ([…]).
# In a dilution series 100 μL/well of test substance dilution prepared in complete RPMI-1640 growth media was added to the cells. The dilution series is selected so that ten concentrations cover a range from 10 μM to 0.33 nM. If necessary the initial concentration of 10 μM is increased to 100 μM or lowered to 1 μM (as in the case of A375 and H1666 cells, which are generally more sensitive to the compounds) and further dilution is carried out accordingly. The final concentration of DMSO in the assay is set at 0.5%.
# After treatment, media was removed and cells were lysed in 50 μL of 1× AlphaScreen Ultra Lysis Buffer (Perkin Elmer). The AlphaLISA® SureFire® Ultra™ p-ERK 1/2 (Thr202/Tyr2O4) (PerkinElmer) reactions were performed with 5 μL of cell lysate according to the manufacturer's specifications in 384-well proxyplates (Perkin Elmer) followed by overnight incubation of the reactions at room temperature in a humidified chamber. After completion of the reactions, the signals were recorded on an EnVision plate reader (Perkin Elmer) using built in AlphaLISA® settings.
# The effect of each compound dilution on the pERK signal was expressed in % inhibition and calculated as follows. An internal 100% inhibition control ([…] trametinib, cat #HY-10999; MedChem Express; CAS #871700-17-3) was included in each plate and used as a measure of pERK background. First, the value obtained for trametinib was subtracted from each data point. The average of DMSO (vehicle) controls (set as 0% inhibition) was established and used to calculate % inhibition: % inhibition=100*(1-((pERK signalcompound)/(pERK signalDMSO)))
# The ability of each compound to inhibit pERK signal was expressed as an IC50 value obtained by plotting the inhibition values for each data point of a dilution series and fitting the obtained curves using a log(agonist) versus response-variable slope (four parameters) function using GraphPadPrism (V7.0) or Dotmatics Screening Ultra platform.
# When present, paradoxical pERK induction is inferred from the negative % inhibition values observed in the pERK IC50 curves of a compound.
row,Compound,IC50 [nM]
1,CC(=O)N1CCCc2nn(-c3ccc4ncnc(Nc5c(F)ccc(NS(=O)(=O)c6cccc(F)c6C)c5F)c4n3)cc21 [Example 357],500 to 1000
2,Cc1c(F)cccc1S(=O)(=O)Nc1ccc(F)c(Nc2ncnc3ccc(-n4cnc5c(CC#N)cccc54)nc23)c1F [Example 361],< 500
3,Cc1c(F)cccc1S(=O)(=O)Nc1ccc(F)c(Nc2ncnc3ccc(-n4cc5c(n4)CCCN5CCN)nc23)c1F [Example 362],1000 to 10000
4,Cc1cc(N)ccc1S(=O)(=O)Nc1ccc(F)c(Nc2ncnc3ccc(-n4cnc5c(N)cccc54)nc23)c1F [Example 369],500 to 1000
5,Cc1c(F)cccc1S(=O)(=O)Nc1ccc(F)c(Nc2ncnc3ccc(-n4cnc5c(N(CCCO)CCCO)cccc54)nc23)c1F [Example 375],< 500
6,COCCN(CCOC)c1cccc2c1ncn2-c1ccc2ncnc(Nc3c(F)ccc(NS(=O)(=O)c4cccc(F)c4C)c3F)c2n1 [Example 376],500 to 1000
7,CC(=O)NCCN1CCCc2nn(-c3ccc4ncnc(Nc5c(F)ccc(NS(=O)(=O)c6cccc(F)c6C)c5F)c4n3)cc21 [Example 383],1000 to 10000
8,COCCCN(CCCOC)c1cccc2c1ncn2-c1ccc2ncnc(Nc3c(F)ccc(NS(=O)(=O)c4cccc(F)c4C)c3F)c2n1 [Example 384],1000 to 10000
9,Cc1c(F)cccc1S(=O)(=O)Nc1ccc(F)c(Nc2ncnc3ccc(-n4cc5c(n4)CCCN5CCCO)nc23)c1F [Example 391],1000 to 10000
10,Cc1c(F)cccc1S(=O)(=O)Nc1ccc(F)c(Nc2ncnc3ccc(-n4cc5c(n4)CCCN5C(=O)CN)nc23)c1F [Example 392],1000 to 10000
11,CC(=O)N1CCc2cnn(-c3ccc4ncnc(Nc5c(F)ccc(NS(=O)(=O)c6cccc(F)c6C)c5F)c4n3)c2C1 [Example 393],500 to 1000
12,Cc1c(F)cccc1S(=O)(=O)Nc1ccc(F)c(Nc2ncnc3ccc(-n4ncc5c4CN(CCN)CC5)nc23)c1F [Example 415],500 to 1000
13,Cc1c(F)cccc1S(=O)(=O)Nc1ccc(F)c(Nc2ncnc3ccc(-n4cnc5c(-c6cnccc6N)cccc54)nc23)c1F [Example 420],1000 to 10000
14,Cc1c(F)cccc1S(=O)(=O)Nc1ccc(F)c(Nc2ncnc3ccc(-n4cnc5c(-c6cccnc6N)cccc54)nc23)c1F [Example 424],< 500
15,Cc1c(F)cccc1S(=O)(=O)Nc1ccc(F)c(Nc2ncnc3ccc(-n4ncc5c4CCCN5CCO)nc23)c1F [Example 425],500 to 1000
16,CN(C)CCNS(=O)(=O)c1cn(-c2ccc3ncnc(Nc4c(F)ccc(NS(=O)(=O)c5cccc(Cl)c5Cl)c4F)c3n2)c2ccc(F)cc12 [Example 443],< 500
17,Cc1c(F)cccc1S(=O)(=O)Nc1ccc(F)c(Nc2ncnc3ccc(-n4ncc5c4CCCN5C)nc23)c1F [Example 460],1000 to 10000
18,CN(C)CCCS(=O)(=O)c1cn(-c2ccc3ncnc(Nc4c(F)ccc(NS(=O)(=O)c5cccc(Cl)c5Cl)c4F)c3n2)c2ccccc12 [Example 484],< 500
19,O=S(=O)(Nc1ccc(F)c(Nc2ncnc3ccc(-n4cc(CC5CCN(CC(F)F)CS5(=O)=O)c5ccccc54)nc23)c1F)c1cccc(Cl)c1Cl (centres unmarked) [Example 488],< 500
20,N#CC1(c2cccc3c2ncn3-c2ccc3ncnc(Nc4c(F)ccc(NS(=O)(=O)c5cccc(Cl)c5Cl)c4F)c3n2)CC1 [Example 552],< 500

# Further lines, results first:
row,IC50 [nM],Compound
1,< 500,CN(C)CCN(C)S(=O)(=O)c1cn(-c2ccc3ncnc(Nc4c(F)ccc(NS(=O)(=O)c5cccc(Cl)c5Cl)c4F)c3n2)c2ccc(F)cc12 [Example 444]
2,< 500,CC(C)(CO)S(=O)(=O)c1cn(-c2ccc3ncnc(Nc4c(F)ccc(NS(=O)(=O)c5cccc(Cl)c5Cl)c4F)c3n2)c2ccccc12 [Example 447]
3,< 500,CN(C)CC(C)(C)S(=O)(=O)c1cn(-c2ccc3ncnc(Nc4c(F)ccc(NS(=O)(=O)c5cccc(Cl)c5Cl)c4F)c3n2)c2ccccc12 [Example 456]
4,< 500,CC(C)(CN1CCOCC1)S(=O)(=O)c1cn(-c2ccc3ncnc(Nc4c(F)ccc(NS(=O)(=O)c5cccc(Cl)c5Cl)c4F)c3n2)c2ccccc12 [Example 457]
5,< 500,CNCC(C)(C)S(=O)(=O)c1cn(-c2ccc3ncnc(Nc4c(F)ccc(NS(=O)(=O)c5cccc(Cl)c5Cl)c4F)c3n2)c2ccccc12 [Example 461]
6,500 to 1000,O=S(=O)(Nc1ccc(F)c(Nc2ncnc3ccc(-n4cc(S(=O)(=O)C5CCNCC5)c5ccccc54)nc23)c1F)c1cccc(Cl)c1Cl [Example 465]
7,< 500,CN1CCC(S(=O)(=O)c2cn(-c3ccc4ncnc(Nc5c(F)ccc(NS(=O)(=O)c6cccc(Cl)c6Cl)c5F)c4n3)c3ccccc23)CC1 [Example 467]
8,< 500,CC(C)N1CCC(S(=O)(=O)c2cn(-c3ccc4ncnc(Nc5c(F)ccc(NS(=O)(=O)c6cccc(Cl)c6Cl)c5F)c4n3)c3ccccc23)CC1 [Example 468]
9,< 500,O=S(=O)(Nc1ccc(F)c(Nc2ncnc3ccc(-n4cc(S(=O)(=O)C5CCN(CC6CC6)CC5)c5ccccc54)nc23)c1F)c1cccc(Cl)c1Cl [Example 469]
10,< 500,O=S(=O)(Nc1ccc(F)c(Nc2ncnc3ccc(-n4cc(S(=O)(=O)C5CCN(C6CCC6)CC5)c5ccccc54)nc23)c1F)c1cccc(Cl)c1Cl [Example 470]
11,1000 to 10000,CP(C)(=O)c1cn(-c2ccc3ncnc(Nc4c(F)ccc(NS(=O)(=O)c5cccc(Cl)c5Cl)c4F)c3n2)c2ccccc12 [Example 472]
12,< 500,CC(C)(CC(F)F)S(=O)(=O)c1cn(-c2ccc3ncnc(Nc4c(F)ccc(NS(=O)(=O)c5cccc(Cl)c5Cl)c4F)c3n2)c2ccccc12 [Example 499]
13,1000 to 10000,O=C(c1cn(-c2ccc3ncnc(Nc4c(F)ccc(NS(=O)(=O)c5cccc(Cl)c5Cl)c4F)c3n2)c2ccccc12)C1CCOC1 (centres unmarked) [Example 500]
14,1000 to 10000,O=[N+]([O-])c1cn(-c2ccc3ncnc(Nc4c(F)ccc(NS(=O)(=O)c5cccc(Cl)c5Cl)c4F)c3n2)c2ccccc12 [Example 506]
15,< 500,O=C1CCCN1c1cn(-c2ccc3ncnc(Nc4c(F)ccc(NS(=O)(=O)c5cccc(Cl)c5Cl)c4F)c3n2)c2ccccc12 [Example 511]
16,1000 to 10000,O=S(=O)(Nc1ccc(F)c(Nc2ncnc3ccc(-n4cnc5c(N6CC[C@@H](O)C6)nccc54)nc23)c1F)c1cccc(Cl)c1Cl [Example 512]
17,500 to 1000,CCOc1nccc2c1ncn2-c1ccc2ncnc(Nc3c(F)ccc(NS(=O)(=O)c4cccc(Cl)c4Cl)c3F)c2n1 [Example 513]
18,< 500,O=S(=O)(Nc1ccc(F)c(Nc2ncnc3ccc(-n4cc(N5CCCCS5(=O)=O)c5ccccc54)nc23)c1F)c1cccc(Cl)c1Cl [Example 514]
19,< 500,CC(C)(C#N)c1cccc2c1ncn2-c1ccc2ncnc(Nc3c(F)ccc(NS(=O)(=O)c4cccc(Cl)c4Cl)c3F)c2n1 [Example 520]
20,1000 to 10000,CS(=O)(=O)c1cccc2c1ncn2-c1ccc2ncnc(Nc3c(F)ccc(NS(=O)(=O)c4cccc(Cl)c4Cl)c3F)c2n1 [Example 521]
21,500 to 1000,COCCOc1nccc2c1ncn2-c1ccc2ncnc(Nc3c(F)ccc(NS(=O)(=O)c4cccc(Cl)c4Cl)c3F)c2n1 [Example 522]
22,500 to 1000,CCOc1cccc2c1ncn2-c1ccc2ncnc(Nc3c(F)ccc(NS(=O)(=O)c4cccc(Cl)c4Cl)c3F)c2n1 [Example 525]
23,1000 to 10000,Cc1c(F)cccc1S(=O)(=O)Nc1ccc(F)c(Nc2ncnc3ccc(-n4ncc5c4CN(CC(N)=O)CC5)nc23)c1F [Example 531]
24,1000 to 10000,O=C1CCCCN1c1cn(-c2ccc3ncnc(Nc4c(F)ccc(NS(=O)(=O)c5cccc(Cl)c5Cl)c4F)c3n2)c2ccccc12 [Example 532]
25,< 500,O=S(=O)(Nc1ccc(F)c(Nc2ncnc3ccc(-n4cc(-c5ccccc5)nn4)nc23)c1F)c1cccc(Cl)c1Cl [Example 534]
26,500 to 1000,O=S(=O)(Nc1ccc(F)c(Nc2ncnc3ccc(-c4cscn4)nc23)c1F)c1cccc(Cl)c1Cl [Example 536]
27,< 500,Cc1cn(-c2ccc3ncnc(Nc4c(F)ccc(NS(=O)(=O)c5cccc(Cl)c5Cl)c4F)c3n2)cn1 [Example 553]

# — patent US12139488B2, “Pyrido[3,2-d]pyrimidine compounds uses thereof for treating a proliferative disease” (Universite de Montreal, priority 2021, dated 2024)
